Results from patent publication US20200239530A1, “COMPOUNDS AND METHODS OF MODULATING PROTEIN DEGRADATION” (Vividion Therapeutics, Inc., priority 2017, published 2020).
Like-named read-outs stand apart in the source and are kept apart here.

Key:
Test in all cases: Cysteine liganding, probe competition
Assay type in all cases: binding
[1] = biological target: T1, UniProt Q7L0R7 (Homo sapiens, UniProt Q7L0R7)
T1 construct: 200 μL of lysate containing 5 mg/ml proteome was treated with 2 μL of 100× compound stock; endogenous in cells
Excerpt: (§1) The following 96-well sample prep protocol was used for sample preparation.

[2] = biological target: T2, UniProt Q96EP0 (Homo sapiens, UniProt Q96EP0); details: 500 uM
T2 construct: 200 μL of lysate containing 5 mg/ml proteome was treated with 2 μL of 100× compound stock; endogenous in cells
Excerpt: as §1

[3] = biological target: T3, UniProt Q9BYV6 (Homo sapiens, UniProt Q9BYV6); details: read-out: KB02_500 uM_percent_inhibition
T3 construct: 200 μL of lysate containing 5 mg/ml proteome was treated with 2 μL of 100× compound stock; endogenous in cells
Excerpt: as §1

[4] = biological target: T4, UniProt Q9NRJ4 (Homo sapiens, UniProt Q9NRJ4); details: read-out: KB02_100 uM_percent_inhibition
T4 construct: 200 μL of lysate containing 5 mg/ml proteome was treated with 2 μL of 100× compound stock; endogenous in cells
Excerpt: as §1

[5] = biological target: T5, UniProt Q9H000 (Homo sapiens, UniProt Q9H000); details: 100 uM
T5 construct: Cells were resuspended in cold PBS on ice and sonicated with a probe sonicator to achieve lysis; endogenous in cells
Excerpt: as §1

[6] = biological target: T6, UniProt P0DH78 (Homo sapiens, UniProt P0DH78); details: read-out: percent_inhibition
T6 construct: 200 μL of lysate containing 5 mg/ml proteome was treated with 2 μL of 100× compound stock; endogenous in cells
Excerpt: as §1

[7] = biological target: T7, UniProt Q6Q0C0 (Homo sapiens, UniProt Q6Q0C0)
T7 construct: 200 μL of lysate containing 5 mg/ml proteome was treated with 2 μL of 100× compound stock; endogenous in cells
T7 sequence (Q6Q0C0 1-670): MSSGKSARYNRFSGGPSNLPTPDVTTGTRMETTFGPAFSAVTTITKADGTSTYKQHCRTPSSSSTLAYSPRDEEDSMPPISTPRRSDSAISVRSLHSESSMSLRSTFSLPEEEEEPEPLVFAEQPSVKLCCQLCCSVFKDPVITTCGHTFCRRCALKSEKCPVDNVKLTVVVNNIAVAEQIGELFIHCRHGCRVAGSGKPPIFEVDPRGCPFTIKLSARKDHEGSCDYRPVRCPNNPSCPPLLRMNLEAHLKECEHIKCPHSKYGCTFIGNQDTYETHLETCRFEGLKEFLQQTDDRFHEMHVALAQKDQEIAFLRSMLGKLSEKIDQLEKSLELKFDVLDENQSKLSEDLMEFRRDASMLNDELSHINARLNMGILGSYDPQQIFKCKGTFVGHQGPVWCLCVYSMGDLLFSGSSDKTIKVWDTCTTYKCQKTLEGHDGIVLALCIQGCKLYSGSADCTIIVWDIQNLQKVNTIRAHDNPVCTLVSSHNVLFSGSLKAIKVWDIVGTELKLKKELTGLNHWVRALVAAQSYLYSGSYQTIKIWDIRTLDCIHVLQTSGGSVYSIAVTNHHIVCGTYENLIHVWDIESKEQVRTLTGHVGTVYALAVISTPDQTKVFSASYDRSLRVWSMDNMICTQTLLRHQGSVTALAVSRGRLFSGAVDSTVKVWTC
Excerpt: as §1

[8] = biological target: T8, UniProt O00635 (Homo sapiens, UniProt O00635)
T8 construct: 200 μL of lysate containing 5 mg/ml proteome was treated with 2 μL of 100× compound stock; endogenous in cells
Excerpt: as §1

[9] = biological target: T9, UniProt P51948 (Homo sapiens, UniProt P51948); details: read-out: percent inhibition
T9 construct: Cells were resuspended in cold PBS on ice and sonicated with a probe sonicator to achieve lysis; endogenous in cells
Excerpt: as §1

[10] = biological target: T10, UniProt Q9C040 (Homo sapiens, UniProt Q9C040)
T10 construct: 200 μL of lysate containing 5 mg/ml proteome was treated with 2 μL of 100× compound stock; endogenous in cells
Excerpt: as §1

[11] = biological target: T11, UniProt Q5U5Q3 (Homo sapiens, UniProt Q5U5Q3); details: read-out: percent inhibition
T11 construct: Cells were resuspended in cold PBS on ice and sonicated with a probe sonicator to achieve lysis; endogenous in cells
Excerpt: as §1

[12] = biological target: T12, UniProt O60291 (Homo sapiens, UniProt O60291)
T12 construct: Cells were resuspended in cold PBS on ice and sonicated with a probe sonicator to achieve lysis; endogenous in cells
Excerpt: as §1

[13] = biological target: T13, UniProt Q8N653 (Homo sapiens, UniProt Q8N653); details: read-out: percent inhibition
T13 construct: Cells were resuspended in cold PBS on ice and sonicated with a probe sonicator to achieve lysis; endogenous in cells
Excerpt: as §1

[14] = biological target: T14, UniProt O14512 (Homo sapiens, UniProt O14512); details: read-out: percent_inhibition
T14 construct: 200 μL of lysate containing 5 mg/ml proteome was treated with 2 μL of 100× compound stock; endogenous in cells
Excerpt: as §1

[15] = biological target: T15, UniProt Q8IUQ4 (Homo sapiens, UniProt Q8IUQ4)
T15 construct: 200 μL of lysate containing 5 mg/ml proteome was treated with 2 μL of 100× compound stock; endogenous in cells
Excerpt: as §1

[16] = biological target: T16, UniProt Q149N8 (Homo sapiens, UniProt Q149N8); details: read-out: percent_inhibition
T16 construct: 200 μL of lysate containing 5 mg/ml proteome was treated with 2 μL of 100× compound stock; endogenous in cells
Excerpt: as §1

[17] = biological target: T17, UniProt Q86YT6 (Homo sapiens, UniProt Q86YT6); details: read-out: percent inhibition
T17 construct: Cells were resuspended in cold PBS on ice and sonicated with a probe sonicator to achieve lysis; endogenous in cells
Excerpt: as §1

[18] = biological target: T18, UniProt Q5VTB9 (Homo sapiens, UniProt Q5VTB9); details: read-out: percent_inhibition
T18 construct: 200 μL of lysate containing 5 mg/ml proteome was treated with 2 μL of 100× compound stock; endogenous in cells
Excerpt: as §1

[19] = biological target: T19, UniProt Q9UPQ7 (Homo sapiens, UniProt Q9UPQ7)
T19 construct: 200 μL of lysate containing 5 mg/ml proteome was treated with 2 μL of 100× compound stock; endogenous in cells
Excerpt: as §1

[20] = biological target: T20, UniProt Q13309 (Homo sapiens, UniProt Q13309); details: read-out: percent_inhibition
T20 construct: 200 μL of lysate containing 5 mg/ml proteome was treated with 2 μL of 100× compound stock; endogenous in cells
Excerpt: as §1

[21] = biological target: T21, UniProt Q9C030 (Homo sapiens, UniProt Q9C030); details: read-out: KB05_500 uM_percent_inhibition
T21 construct: 200 μL of lysate containing 5 mg/ml proteome was treated with 2 μL of 100× compound stock; endogenous in cells
Excerpt: as §1

[22] = biological target: T22, UniProt Q15025 (Homo sapiens, UniProt Q15025); details: 100 uM
T22 construct: 200 μL of lysate containing 5 mg/ml proteome was treated with 2 μL of 100× compound stock; endogenous in cells
Excerpt: as §1

[23] = biological target: T23, UniProt O75382 (Homo sapiens, UniProt O75382); details: 100 uM
T23 construct: 200 μL of lysate containing 5 mg/ml proteome was treated with 2 μL of 100× compound stock; endogenous in cells
Excerpt: as §1

[24] = biological target: T24, UniProt Q86TM6 (Homo sapiens, UniProt Q86TM6); details: 100 uM
T24 construct: 200 μL of lysate containing 5 mg/ml proteome was treated with 2 μL of 100× compound stock; endogenous in cells
Excerpt: as §1

[25] = biological target: T25, UniProt Q86XN8 (Homo sapiens, UniProt Q86XN8); details: 100 uM
T25 construct: Cells were resuspended in cold PBS on ice and sonicated with a probe sonicator to achieve lysis; endogenous in cells
Excerpt: as §1

[26] = 100 uM, read-out: KB02_100 uM_percent_inhibition
[27] = 500 uM, read-out: KB02_500 uM_percent_inhibition

T1 sequence (Q7L0R7 whole entry, change not shown): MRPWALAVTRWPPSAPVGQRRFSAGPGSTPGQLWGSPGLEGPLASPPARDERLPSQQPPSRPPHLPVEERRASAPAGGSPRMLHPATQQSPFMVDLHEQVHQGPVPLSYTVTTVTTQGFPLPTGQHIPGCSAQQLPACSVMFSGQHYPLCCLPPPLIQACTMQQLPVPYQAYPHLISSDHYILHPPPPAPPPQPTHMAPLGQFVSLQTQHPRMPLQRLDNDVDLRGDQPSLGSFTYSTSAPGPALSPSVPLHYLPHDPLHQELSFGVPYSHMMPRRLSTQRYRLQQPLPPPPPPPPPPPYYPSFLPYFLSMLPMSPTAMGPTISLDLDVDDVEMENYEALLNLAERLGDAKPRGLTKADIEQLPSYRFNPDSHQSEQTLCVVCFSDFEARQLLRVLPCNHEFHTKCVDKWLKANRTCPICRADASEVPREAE
T8 sequence (O00635 whole entry, change not shown): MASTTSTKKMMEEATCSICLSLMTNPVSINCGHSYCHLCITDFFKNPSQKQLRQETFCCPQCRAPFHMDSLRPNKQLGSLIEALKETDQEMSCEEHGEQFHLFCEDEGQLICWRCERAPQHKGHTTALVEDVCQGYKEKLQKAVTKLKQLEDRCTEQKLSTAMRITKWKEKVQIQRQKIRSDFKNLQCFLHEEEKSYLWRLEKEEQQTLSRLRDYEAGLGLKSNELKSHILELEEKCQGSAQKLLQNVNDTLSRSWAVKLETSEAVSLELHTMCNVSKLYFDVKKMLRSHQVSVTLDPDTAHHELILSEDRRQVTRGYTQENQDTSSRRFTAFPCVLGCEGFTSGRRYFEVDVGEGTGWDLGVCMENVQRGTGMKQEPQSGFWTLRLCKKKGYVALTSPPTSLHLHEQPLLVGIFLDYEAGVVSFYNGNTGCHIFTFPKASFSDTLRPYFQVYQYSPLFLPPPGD
T6 sequence (P0DH78 whole entry, change not shown): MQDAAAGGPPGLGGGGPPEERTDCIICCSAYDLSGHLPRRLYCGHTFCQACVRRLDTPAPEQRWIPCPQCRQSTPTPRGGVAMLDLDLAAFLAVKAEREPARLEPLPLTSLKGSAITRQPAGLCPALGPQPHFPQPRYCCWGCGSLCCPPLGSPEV
T10 sequence (Q9C040 whole entry, change not shown): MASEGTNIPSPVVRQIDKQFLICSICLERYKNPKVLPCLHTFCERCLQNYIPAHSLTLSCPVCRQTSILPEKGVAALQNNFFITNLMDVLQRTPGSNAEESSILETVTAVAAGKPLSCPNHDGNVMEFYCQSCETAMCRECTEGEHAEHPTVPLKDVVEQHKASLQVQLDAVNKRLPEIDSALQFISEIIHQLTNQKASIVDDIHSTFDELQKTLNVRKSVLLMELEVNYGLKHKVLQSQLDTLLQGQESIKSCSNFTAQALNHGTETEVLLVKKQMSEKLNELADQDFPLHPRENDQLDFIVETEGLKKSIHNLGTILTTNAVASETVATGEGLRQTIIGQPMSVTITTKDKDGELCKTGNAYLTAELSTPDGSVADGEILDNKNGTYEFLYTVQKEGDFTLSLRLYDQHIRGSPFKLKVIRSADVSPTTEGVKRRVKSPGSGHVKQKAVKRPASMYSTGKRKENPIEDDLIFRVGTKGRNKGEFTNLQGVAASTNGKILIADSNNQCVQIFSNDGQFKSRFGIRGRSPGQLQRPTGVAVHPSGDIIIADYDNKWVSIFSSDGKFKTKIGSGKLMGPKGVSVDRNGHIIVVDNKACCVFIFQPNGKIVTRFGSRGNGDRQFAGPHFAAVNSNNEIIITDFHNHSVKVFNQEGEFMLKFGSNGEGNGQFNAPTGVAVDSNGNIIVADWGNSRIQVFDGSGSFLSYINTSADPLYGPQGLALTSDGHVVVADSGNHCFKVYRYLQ
T15 sequence (Q8IUQ4 whole entry, change not shown): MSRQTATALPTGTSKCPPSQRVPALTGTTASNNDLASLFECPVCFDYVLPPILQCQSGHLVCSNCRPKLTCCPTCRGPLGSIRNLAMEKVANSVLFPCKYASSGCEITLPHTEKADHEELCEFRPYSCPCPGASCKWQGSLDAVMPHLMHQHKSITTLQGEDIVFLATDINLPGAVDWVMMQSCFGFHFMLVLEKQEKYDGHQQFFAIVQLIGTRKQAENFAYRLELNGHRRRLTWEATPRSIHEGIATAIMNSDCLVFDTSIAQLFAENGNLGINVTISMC
T19 sequence (Q9UPQ7 whole entry, change not shown): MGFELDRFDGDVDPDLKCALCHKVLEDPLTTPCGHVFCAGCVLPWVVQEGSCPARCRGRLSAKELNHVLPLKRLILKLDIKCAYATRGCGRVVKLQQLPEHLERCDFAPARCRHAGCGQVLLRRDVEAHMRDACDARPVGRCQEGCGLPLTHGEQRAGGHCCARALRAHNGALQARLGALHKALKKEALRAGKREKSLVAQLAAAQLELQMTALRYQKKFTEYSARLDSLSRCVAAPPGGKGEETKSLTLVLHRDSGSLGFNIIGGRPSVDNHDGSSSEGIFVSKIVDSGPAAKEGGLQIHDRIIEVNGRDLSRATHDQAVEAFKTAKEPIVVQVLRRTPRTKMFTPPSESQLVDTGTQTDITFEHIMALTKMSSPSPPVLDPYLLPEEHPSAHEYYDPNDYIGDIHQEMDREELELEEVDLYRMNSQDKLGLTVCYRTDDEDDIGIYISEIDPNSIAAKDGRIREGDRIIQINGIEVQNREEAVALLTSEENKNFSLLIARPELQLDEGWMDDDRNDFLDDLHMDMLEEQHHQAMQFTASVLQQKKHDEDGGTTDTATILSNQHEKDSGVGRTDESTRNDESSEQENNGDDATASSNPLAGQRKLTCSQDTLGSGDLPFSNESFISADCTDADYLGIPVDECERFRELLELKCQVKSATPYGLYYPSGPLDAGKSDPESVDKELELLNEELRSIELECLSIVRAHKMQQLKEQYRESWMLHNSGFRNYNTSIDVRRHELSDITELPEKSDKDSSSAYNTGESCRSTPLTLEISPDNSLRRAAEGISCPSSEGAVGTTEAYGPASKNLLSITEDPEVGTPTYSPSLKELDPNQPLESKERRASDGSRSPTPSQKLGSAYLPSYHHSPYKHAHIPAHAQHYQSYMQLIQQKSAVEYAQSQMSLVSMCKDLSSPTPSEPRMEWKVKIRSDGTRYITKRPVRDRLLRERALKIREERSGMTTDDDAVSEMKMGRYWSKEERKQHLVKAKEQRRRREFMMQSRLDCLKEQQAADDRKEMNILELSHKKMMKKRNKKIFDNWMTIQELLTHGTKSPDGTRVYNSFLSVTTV
T12 sequence (O60291 whole entry, change not shown): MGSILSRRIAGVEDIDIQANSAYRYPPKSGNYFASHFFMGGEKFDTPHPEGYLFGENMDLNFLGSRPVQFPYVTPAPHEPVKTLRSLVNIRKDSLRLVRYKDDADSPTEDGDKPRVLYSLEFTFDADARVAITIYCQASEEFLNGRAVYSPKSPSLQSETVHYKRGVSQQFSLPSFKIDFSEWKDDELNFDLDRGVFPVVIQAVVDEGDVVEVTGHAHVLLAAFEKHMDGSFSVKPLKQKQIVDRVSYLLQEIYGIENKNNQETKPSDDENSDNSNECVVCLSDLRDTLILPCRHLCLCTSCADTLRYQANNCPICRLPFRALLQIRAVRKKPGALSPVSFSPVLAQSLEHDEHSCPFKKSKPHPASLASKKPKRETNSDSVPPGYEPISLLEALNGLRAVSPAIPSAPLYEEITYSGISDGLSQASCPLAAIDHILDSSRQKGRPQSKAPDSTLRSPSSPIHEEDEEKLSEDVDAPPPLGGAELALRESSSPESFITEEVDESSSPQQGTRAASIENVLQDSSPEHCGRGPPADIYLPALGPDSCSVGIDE
T24 sequence (Q86TM6 whole entry, change not shown): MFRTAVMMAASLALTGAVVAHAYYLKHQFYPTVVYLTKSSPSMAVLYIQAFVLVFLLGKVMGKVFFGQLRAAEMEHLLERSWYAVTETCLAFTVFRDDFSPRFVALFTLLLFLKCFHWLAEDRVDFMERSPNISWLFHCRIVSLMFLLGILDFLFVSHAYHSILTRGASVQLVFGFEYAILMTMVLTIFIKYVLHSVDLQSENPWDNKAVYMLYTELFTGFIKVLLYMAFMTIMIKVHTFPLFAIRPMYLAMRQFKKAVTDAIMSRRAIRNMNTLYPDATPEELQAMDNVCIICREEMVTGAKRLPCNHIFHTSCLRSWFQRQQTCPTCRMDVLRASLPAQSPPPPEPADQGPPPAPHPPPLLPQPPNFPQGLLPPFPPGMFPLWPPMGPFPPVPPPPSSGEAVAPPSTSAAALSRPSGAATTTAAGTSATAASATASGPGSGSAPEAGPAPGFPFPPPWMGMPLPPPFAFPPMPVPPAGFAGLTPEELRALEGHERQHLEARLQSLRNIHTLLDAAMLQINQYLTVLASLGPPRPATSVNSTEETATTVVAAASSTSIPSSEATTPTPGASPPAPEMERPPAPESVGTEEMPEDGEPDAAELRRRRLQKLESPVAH
T14 sequence (O14512 whole entry, change not shown): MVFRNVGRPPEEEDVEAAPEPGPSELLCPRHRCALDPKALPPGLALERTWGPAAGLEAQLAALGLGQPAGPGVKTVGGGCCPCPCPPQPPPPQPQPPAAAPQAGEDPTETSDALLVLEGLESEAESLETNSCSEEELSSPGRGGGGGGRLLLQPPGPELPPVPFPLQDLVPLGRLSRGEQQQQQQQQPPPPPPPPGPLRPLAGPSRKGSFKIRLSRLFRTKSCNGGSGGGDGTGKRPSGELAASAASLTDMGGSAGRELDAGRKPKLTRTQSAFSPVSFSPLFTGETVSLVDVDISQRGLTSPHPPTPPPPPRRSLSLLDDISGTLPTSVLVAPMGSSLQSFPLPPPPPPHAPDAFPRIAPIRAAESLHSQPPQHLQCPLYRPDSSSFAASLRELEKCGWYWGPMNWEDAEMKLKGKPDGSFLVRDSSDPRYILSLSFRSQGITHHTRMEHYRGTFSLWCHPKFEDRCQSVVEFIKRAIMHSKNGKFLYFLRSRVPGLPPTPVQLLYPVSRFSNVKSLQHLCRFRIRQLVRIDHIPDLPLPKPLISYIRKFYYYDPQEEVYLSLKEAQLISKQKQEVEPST

COc1ccc2c(c1)CCCN2C(=O)CCl [KB02]
inhibition at 100 µM ([1]; 100 uM, read-out: percent_inhibition): 44% | percent_inhibition ([1]; 500 uM): 42% | inhibition at 500 µM ([1]; 500 uM, read-out: percent_inhibition): 41% | percent_inhibition [2]: 24% | inhibition at 500 µM [3]: 1% | inhibition at 100 µM [4]: 28% | percent inhibition [5]: 24% | inhibition at 100 µM ([6]; 100 uM): 17% | inhibition at 500 µM ([6]; 500 uM): 67% | inhibition at 100 µM [7, 26]: 3% | inhibition at 500 µM [7, 27]: 47% | inhibition at 100 µM ([7]; read-out: percent_inhibition): 1% | KB02_100 uM_percent_inhibition ([8]; 100 uM): 7% | inhibition at 100 µM ([8]; read-out: KB02_100 uM_percent_inhibition): 8% | inhibition at 100 µM [9]: 3% | inhibition at 100 µM [10, 26]: 20% | inhibition at 500 µM [10, 27]: 32% | inhibition at 100 µM [11]: 5%

C=CC(=O)N(c1ccccc1)c1ccc(Br)cc1 [KB05]
percent inhibition ([12]; 100 uM): 20% | inhibition at 100 µM ([12]; read-out: percent inhibition): 13% | inhibition at 100 µM [13]: 11% | inhibition at 500 µM [14]: 89% | percent_inhibition ([15]; 100 uM): 17% | inhibition at 100 µM ([15]; read-out: percent_inhibition): 9% | inhibition at 100 µM [16]: 41% | inhibition at 100 µM [17]: 31% | inhibition at 100 µM [18]: 2% | KB05_100 uM_percent_inhibition ([19]; 100 uM): 24% | inhibition at 100 µM ([19]; read-out: KB05_100 uM_percent_inhibition): 20% | inhibition at 100 µM [20]: 10% | inhibition at 500 µM [21]: 53%

O=C(CCl)Nc1cc(C(F)(F)F)cc(C(F)(F)F)c1 [KBO3]
percent_inhibition [22]: 3% | KB03_100 uM_percent_inhibition [23]: 45% | percent_inhibition [24]: 19% | percent inhibition [25]: 48%
